Results on 4 compounds are retold here after patent publication US8362034B2, “Quinoline compound, and composition containing centipede extract or compounds isolated therefrom for prevention and treatment of cardiovascular disease” (Korea Research Institute of Bioscience and Biotechnology, priority 2005, dated 2013).

Each structure is given as a SMILES string.

In one assay the test system is LDL. As to the kind of experiment: LDL-antioxidant activity by TBARS (Cu2+-mediated LDL-oxidation). The format is biochemical, human. As to the method:
Ed., Methods in Enzymology. Vol. 234, Oxygen radicals in biological systems Part D. Academic press, San Diego, 1994]. Three hundred ml of human plasma was taken, followed by centrifugation at 100,000×g for 24 hours with an ultracentrifuge. VLDL/chylomicrom layer floating in the supernatant was eliminated. […] At that time, the compounds were dissolved in dimethylsulfoxide (DMSO) and diluted at different concentrations to be ready for the experiment. DMSO alone was used as a negative control. As a positive control, probucol, a known antioxidant, was added. To each solution was added 10 μl of 0.25 mM CuSO4, followed by reaction at 37° C. for 4 hours. The reaction was terminated by addition of 1 ml of 20% trichloroacetic acid (TCA) solution. 1 ml of 0.67% TBA solution dissolved in 0.05 N NaOH solution was added thereto, followed by stirring for 10 seconds. The solution was heated at 95° C. for 5 minutes to induce color development and then cooled down with ice water. The solution was centrifuged at 3000 rpm for 5 minutes to separate the supernatant and OD540 was measured with UV/VIS spectrophotometer to measure the level of malondialdehyde (MDA) generated by the color development. In the meantime, to calculate the standard curve of malondialdehyde, the stock solution of malonaldehyde bis (dimethylacetal) was diluted, resulting in PBS standard solution containing 0˜10 nmol malondialdehyde. […] The malondialdehyde generated from the compounds of the invention was quantified and inhibitory activity and IC50 were also calculated.

A further assay has as its target T1, hACAT-1 (Homo sapiens, UniProt P35610).
T1 construct: made in house; host or cells: baculovirus; virus produced in sf9, protein expressed in Hi5 insect cells; microsome fraction used
T1 sequence (P35610 1-550): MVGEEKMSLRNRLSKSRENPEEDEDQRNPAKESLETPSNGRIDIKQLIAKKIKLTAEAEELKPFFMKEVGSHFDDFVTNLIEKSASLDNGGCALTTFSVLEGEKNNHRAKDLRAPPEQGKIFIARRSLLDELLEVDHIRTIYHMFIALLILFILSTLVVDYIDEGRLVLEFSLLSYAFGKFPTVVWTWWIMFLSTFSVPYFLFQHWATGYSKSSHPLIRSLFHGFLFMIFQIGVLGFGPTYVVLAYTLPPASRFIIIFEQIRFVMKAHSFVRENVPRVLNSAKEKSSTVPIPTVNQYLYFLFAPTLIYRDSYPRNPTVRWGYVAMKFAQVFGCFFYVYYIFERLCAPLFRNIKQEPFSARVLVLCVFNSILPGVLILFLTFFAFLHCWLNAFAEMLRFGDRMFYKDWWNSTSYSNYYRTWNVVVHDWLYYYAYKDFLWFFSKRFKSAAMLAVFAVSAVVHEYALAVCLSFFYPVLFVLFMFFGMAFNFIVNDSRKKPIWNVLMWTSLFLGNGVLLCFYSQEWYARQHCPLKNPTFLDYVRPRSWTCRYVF
As to the kind of experiment: ACAT activity, hACAT-1 microsomes, [1-14C]oleoyl-CoA. As to conditions: 100 μg/ml; read-out: Inhibitory activity (%) hACAT-1. The format is biochemical. From the text:
(§1) To investigate the effect on human ACAT-1 and ACAT-2 activities, hACAT-1 and hACAT-2 proteins were obtained using baculovirus expression system.
(§2) hACAT-1 and hACAT-2 cDNAs, obtained by human liver cDNA library screening, were inserted into the baculovirus transfer vector, which was introduced into an insect cell line sf9 to produce virus. Then, recombinant virus of each hACAT-1 and hACAT-2 was separated by plaque purification, followed by amplification three times to raise titer of the viral stock. Hi5 insect cells having high protein expression efficiency were infected with the recombinant virus (1 multiplicity of infection), followed by shaking culture at 27° C. for a day. Centrifugation was performed at 500×g for 15 minutes to separate microsome fractions from Hi5 cells over-expressing hACAT-1 and hACAT-2. The resultant cells were lysed in a hypotonic buffer by quick freezing-quick thawing, followed by ultracentrifugation at 100,000×g for one hour. The obtained microsome fractions were suspended in the hypotonic buffer until the concentration of the protein reached 8 mg/ml, which was stored in a deep freezer until use.
(§3) To measure the ACAT activity, [1-^14C] oleoly-CoA (56.0 μCi/μmol; Amersham) was used as a substrate and a method of Brecher & Chan was used with a slight modification [P. Brecher and C. Chan, Biochem. Biophys. Acta, 617, 458, 1980].
(§4) Ten μl of the centipede extracts or the compound prepared in the above Example was mixed with 4.0 μl of the microsomal solution prepared in Experimental Example <2-1>, 20.0 μl of an activity analyzing buffer (0.5 M KH2PO4, 10 mM DTT, pH 7.4; Sigma), 15.0 μl of fatty acid-free bovine serum albumin (fatty acid-free BSA, stock concentration 40 mg/ml; Sigma), 2.0 μl of cholesterol (stock solution 20 mg/ml; Sigma) and 41.0 μl of distilled water, which was preincubated at 37° C. for 15 minutes. […] The radioactivity of the mixture was measured with 1450 Microbeta liquid scintillation counter (Wallacoy).
(§5) ACAT activity was calculated as pmol of cholesteryl oleate synthesized per 1 mg of protein in one minute (pmol/minute/mg of protein).

The target in the next assay is T2, hACAT-2 (Homo sapiens, UniProt O75908).
T2 construct: made in house; host or cells: baculovirus; virus produced in sf9, protein expressed in Hi5 insect cells; microsome fraction used
T2 sequence (O75908 1-522): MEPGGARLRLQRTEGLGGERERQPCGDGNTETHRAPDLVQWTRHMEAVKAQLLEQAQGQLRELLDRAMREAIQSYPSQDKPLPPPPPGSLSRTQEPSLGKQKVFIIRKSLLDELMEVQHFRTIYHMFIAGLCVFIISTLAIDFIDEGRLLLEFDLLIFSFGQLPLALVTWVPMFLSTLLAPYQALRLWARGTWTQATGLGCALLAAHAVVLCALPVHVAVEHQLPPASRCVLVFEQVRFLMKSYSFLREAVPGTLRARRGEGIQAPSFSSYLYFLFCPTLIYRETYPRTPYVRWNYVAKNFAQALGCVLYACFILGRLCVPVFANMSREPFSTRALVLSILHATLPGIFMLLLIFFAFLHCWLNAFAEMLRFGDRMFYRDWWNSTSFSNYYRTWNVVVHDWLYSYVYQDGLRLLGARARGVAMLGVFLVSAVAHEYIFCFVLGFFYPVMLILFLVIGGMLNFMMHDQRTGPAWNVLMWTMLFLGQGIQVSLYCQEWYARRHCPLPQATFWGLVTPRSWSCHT
As to the kind of experiment: ACAT activity, hACAT-2 microsomes, [1-14C]oleoyl-CoA. As to conditions: 100 μg/ml; read-out: Inhibitory activity (%) hACAT-2. The format is biochemical.
Text: as §1, §2, §3, §4, §5

`Oc1cnc2c(O)cccc2c1` [Compound 1, 3,8-dihydroxyquinoline] registered an IC50 with LDL of 2.6 µM. Further, the results for the inhibition at 100 µg/mL on hACAT-1 and on hACAT-2 were 60% and 50%, respectively.

In the assay with LDL, `CC(C)(C)c1ccc(O)c(C(C)(C)C)c1` [Compound 3, 2,4-di-tert-butylphenol] yielded an IC50 of 8.2 µM. The values for the inhibition at 100 µg/mL at hACAT-1 and on hACAT-2 were 63% and 51%, respectively.

In the assay on LDL, `COc1c(O)nc2c(O)cccc2c1OC` [Compound 2, 3,4-dimethoxyquinoline-2,8-diol] had a concentration for half-maximal inhibition (IC50) of 63 µM. Moreover, the inhibition at 100 µg/mL amounted to 79% on hACAT-1 and 58% on hACAT-2.

Consider `CC(C)(Sc1cc(C(C)(C)C)c(O)c(C(C)(C)C)c1)Sc1cc(C(C)(C)C)c(O)c(C(C)(C)C)c1` [Probucol, probucol, reference compound], for which inhibition in the assay on LDL was half-maximal at 3.1 µM (IC50).

Usually IC50 stands for the point on the concentration scale where inhibition reaches its midpoint.
